Drawing on ChEMBL document CHEMBL1201862, “PubChem BioAssay data set” (2004), this text covers AC50 and EC50 for 48 compounds.

Structures are written as SMILES. The source made the active and inactive calls. Some results are limits rather than exact numbers.

One series concerns the target T1, Cytochrome P450 1A2 (Homo sapiens, UniProt P05177).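 Further: PubChem cytochrome P450 panel assay, CYP1A2 panel member.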
T1 sequence (P05177 whole entry): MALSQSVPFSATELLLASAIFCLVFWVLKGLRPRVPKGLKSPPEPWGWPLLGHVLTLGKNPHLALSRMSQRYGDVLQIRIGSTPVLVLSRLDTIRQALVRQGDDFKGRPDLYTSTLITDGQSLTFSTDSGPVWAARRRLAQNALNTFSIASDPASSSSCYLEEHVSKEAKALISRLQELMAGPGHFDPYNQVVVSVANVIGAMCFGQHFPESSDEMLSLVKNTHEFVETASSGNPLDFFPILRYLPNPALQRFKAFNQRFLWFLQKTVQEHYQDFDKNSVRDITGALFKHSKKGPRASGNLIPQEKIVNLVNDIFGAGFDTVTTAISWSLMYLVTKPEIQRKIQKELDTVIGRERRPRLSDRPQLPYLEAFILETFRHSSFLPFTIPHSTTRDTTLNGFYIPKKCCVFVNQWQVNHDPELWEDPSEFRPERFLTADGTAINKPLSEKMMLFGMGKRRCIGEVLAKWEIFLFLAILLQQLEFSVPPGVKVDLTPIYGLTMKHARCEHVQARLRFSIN

For another series, the target named is Cytochrome P450 2C9 (Homo sapiens, UniProt P11712).
Chain of Cytochrome P450 2C9 (P11712 whole entry): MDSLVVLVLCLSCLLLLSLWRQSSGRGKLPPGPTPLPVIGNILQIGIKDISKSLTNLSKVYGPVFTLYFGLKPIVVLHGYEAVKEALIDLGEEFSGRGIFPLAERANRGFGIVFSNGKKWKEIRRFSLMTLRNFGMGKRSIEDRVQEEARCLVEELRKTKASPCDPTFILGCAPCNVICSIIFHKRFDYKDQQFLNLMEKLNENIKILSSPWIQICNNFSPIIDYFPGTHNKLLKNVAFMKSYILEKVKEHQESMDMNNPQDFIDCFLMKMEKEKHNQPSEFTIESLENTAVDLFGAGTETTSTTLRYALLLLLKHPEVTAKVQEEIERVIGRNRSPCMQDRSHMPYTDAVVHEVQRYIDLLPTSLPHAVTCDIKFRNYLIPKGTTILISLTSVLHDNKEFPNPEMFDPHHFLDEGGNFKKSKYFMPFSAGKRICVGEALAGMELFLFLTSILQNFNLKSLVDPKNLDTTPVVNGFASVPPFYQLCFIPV
Series [1] has as its target T2, Heat shock factor protein 1 (Mus musculus, UniProt P38532).
T2 sequence (P38532 whole entry): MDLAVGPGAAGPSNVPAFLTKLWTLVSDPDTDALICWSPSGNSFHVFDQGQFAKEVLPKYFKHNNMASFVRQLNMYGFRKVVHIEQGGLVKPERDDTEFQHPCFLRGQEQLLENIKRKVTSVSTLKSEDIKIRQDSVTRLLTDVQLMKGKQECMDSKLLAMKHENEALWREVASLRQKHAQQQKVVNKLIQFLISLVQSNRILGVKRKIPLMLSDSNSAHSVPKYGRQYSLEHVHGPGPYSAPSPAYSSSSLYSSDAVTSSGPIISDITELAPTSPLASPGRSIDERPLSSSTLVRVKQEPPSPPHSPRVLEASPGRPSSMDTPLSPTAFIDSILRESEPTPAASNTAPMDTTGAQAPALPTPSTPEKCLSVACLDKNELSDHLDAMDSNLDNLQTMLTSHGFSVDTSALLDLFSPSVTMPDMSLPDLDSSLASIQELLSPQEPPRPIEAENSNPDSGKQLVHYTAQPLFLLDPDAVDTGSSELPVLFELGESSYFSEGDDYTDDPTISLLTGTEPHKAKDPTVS
Nature of the series: decrease of HSF1-responsive luciferase luminescence – cell-based, NIH3T3, dose retest, confirmation (AID 2382).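 Further: NIH3T3 fibroblasts with HSF1-driven luciferase reporter stressed by proteasome inhibitor MG132; luminescence from HSF1-driven luciferase expression after 8 hours of MG132 stress.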 It is filed as functional.

The next series addresses Cytochrome P450 2C19 (Homo sapiens, UniProt P33261). Put plainly: Cytochrome panel assay with activity outcomes. Panel member name: p450-cyp2c19 Compounds with AC50 equal or less than 10 uM are considered active. The series is classed as functional.
In series [2] the target is T2, Heat shock factor protein 1. Nature of the series: enhancement of HSF1-driven luciferase signal – cell-based, NIH3T3, luminescence, dose retest, confirmation (AID 435004).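 Further: stress induced by proteasome inhibitor MG132 added 30 min after compound; luciferase reporter driven by HSF1 response element in NIH3T3 cells; actives raise luminescence as potentiators of the MG132 stress response.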 It is filed as functional.
The subject of another series is H4. Nature of the series: Luminescence Cell-Based Dose Response HTS to Identify Activators of 5'UTR Stem-Loop Driven Prion Protein mRNA Translation in H4 Neuroglioblastoma Cells. [Related pubchem assays: 1829 (Project Summary), 1814 (Primary HTS)]. The series is classed as functional. To be noted: Homo sapiens.
Series [3] can be described thus: Luminescence Cell-Based Dose Response HTS to Identify Activators of Luciferase Translation or Activity in H4 […] Cells. [Related pubchem assays: 1829 (Project Summary), 1814 (Primary HTS)]. The series is classed as functional.
A short description of series [4]: Luminescence Cell-Based Dose Confirmation HTS to Identify Activators of 5'UTR Stem-Loop Driven Alpha-Synuclein mRNA Translation in H4 Neuroglioblastoma Cells. [Related pubchem assays: 1829 (Project Summary), 1814 (Primary HTS)]. It is filed as functional.
In the next series the target is Cytochrome P450 3A4 (Homo sapiens, UniProt P08684).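 Further: CYP3A4 tested as one member of a cytochrome P450 panel screen.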
Chain of Cytochrome P450 3A4 (P08684 whole entry): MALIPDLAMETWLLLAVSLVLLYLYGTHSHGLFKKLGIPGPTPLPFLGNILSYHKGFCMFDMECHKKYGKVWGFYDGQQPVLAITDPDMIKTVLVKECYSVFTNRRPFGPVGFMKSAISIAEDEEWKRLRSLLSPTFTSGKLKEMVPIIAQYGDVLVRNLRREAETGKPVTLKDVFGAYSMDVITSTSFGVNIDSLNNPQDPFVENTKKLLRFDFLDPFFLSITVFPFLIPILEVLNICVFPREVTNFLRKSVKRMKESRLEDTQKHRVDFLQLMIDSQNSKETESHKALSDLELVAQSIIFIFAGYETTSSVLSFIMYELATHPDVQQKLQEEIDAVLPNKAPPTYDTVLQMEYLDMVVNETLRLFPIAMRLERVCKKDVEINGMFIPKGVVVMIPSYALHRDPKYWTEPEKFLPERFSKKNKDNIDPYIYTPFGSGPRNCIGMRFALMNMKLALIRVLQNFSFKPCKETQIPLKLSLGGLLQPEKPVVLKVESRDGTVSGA

Chain of Cytochrome P450 2C19 (P33261 whole entry): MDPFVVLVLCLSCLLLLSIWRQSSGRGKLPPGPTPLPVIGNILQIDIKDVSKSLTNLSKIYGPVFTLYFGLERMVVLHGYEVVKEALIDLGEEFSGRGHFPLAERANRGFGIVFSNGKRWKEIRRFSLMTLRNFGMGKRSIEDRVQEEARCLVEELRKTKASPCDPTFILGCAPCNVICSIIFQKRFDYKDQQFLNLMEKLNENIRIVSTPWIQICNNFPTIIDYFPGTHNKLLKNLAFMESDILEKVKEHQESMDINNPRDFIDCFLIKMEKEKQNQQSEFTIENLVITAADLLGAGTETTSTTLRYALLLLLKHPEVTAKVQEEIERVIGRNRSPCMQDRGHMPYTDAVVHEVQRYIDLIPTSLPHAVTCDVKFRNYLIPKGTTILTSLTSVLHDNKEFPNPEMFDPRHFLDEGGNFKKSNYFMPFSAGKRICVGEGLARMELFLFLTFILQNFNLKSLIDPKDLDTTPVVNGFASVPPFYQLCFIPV

In the case of `CCOc1ccc(-n2ccnc2SCC(=O)Nc2nnc(C)s2)cc1`, the AC50 at Cytochrome P450 1A2 is 25.1 µM (inconclusive); on Cytochrome P450 2C9 it was 11.2 µM (inconclusive).
Consider `Cc1cc(C)c(NC(=O)CSc2nnc(-c3ccncc3)n2Cc2ccco2)c(Cl)c1`, for which the EC50 in [1] is listed as > 195 µM (not active).
For `COc1cccc(Nc2ncc3nc(-c4ccccc4)c(=O)n(C4CC4)c3n2)c1`, the AC50 on Cytochrome P450 2C9 is 10 µM (inconclusive).
For `COCCn1c(=O)c(-c2cccc(C#N)c2)nc2cnc(OCc3ccccc3)nc21`, the AC50 result was “inconclusive” at Cytochrome P450 2C19 and 12.6 µM (inconclusive) on Cytochrome P450 1A2.
Take `CSc1ccc(C(=O)C2CCCN(Cc3cccnc3)C2)cc1` (stereo unspecified): the EC50 in series [2] is > 260 µM (inactive).
Same read-out and setting: the value for `Cc1cc(-c2nc3ncccc3o2)ccc1NC(=S)NC(=O)C(C)C` was > 260 µM (inactive); that for `O=C1CC(N2CCC(c3nc4ccccc4[nH]3)CC2)C(=O)N1c1ccccc1F` (stereo unspecified) was > 260 µM (inactive).
Regarding `Clc1ccccc1CSc1ncn(-c2ccccc2)n1`, the EC50 with H4 was 36.9 µM (active); in series [3] it was 0.42 µM (active); in [4] it was 0.191 µM (active).
Turning to `COC(=O)c1cc(OC)c(OC)cc1NC(=S)NC(=O)c1ccco1`, the EC50 in [2] is 28.2 µM (active).
Turning to `O=C(CNC(=O)C1CCCCC1)OCC(=O)c1ccc(Br)cc1`, the EC50 in series [2] is > 260 µM (inactive).
With `CCOC(=O)C1C(=O)OC(C)(C)C1C(C)C(=O)c1ccc(C)cc1C` (stereo unspecified), the EC50 in series [2] is > 260 µM (inactive).
As for `CC1(C)CC(=O)C2=C(C1)N(c1ccc(F)cc1)C(N)=C(C#N)C2c1cccs1` (stereo unspecified), the AC50 was 39.8 µM (inconclusive) at Cytochrome P450 2C19 (read-out: AC50) and 10 µM (inconclusive) on Cytochrome P450 2C9.
Turning to `CC(NC(=O)c1ccc(C(C)(C)C)cc1)C(c1cccs1)N1CCOCC1` (stereo unspecified), in series [2], the EC50 was > 260 µM (inactive).
`COc1ccc(NCc2nnc(SCC(=O)c3ccc(OC)cc3)n2C)cc1`: the EC50 (in the series with H4; in [3]; in series [4]) was > 120 µM (not active) each time.
As for `OCCC1CN(Cc2cccc(-n3cccn3)c2)CCN1Cc1ccccc1` (stereo unspecified), in series [1], the EC50 is reported as > 195 µM (not active).
Still for that read-out and setting: the value for `CC(C)CNC(=O)c1noc2c1CCCC2` was > 195 µM (not active).
`Cc1cc(C)c(C#N)c(Oc2ccccc2)n1`: at Cytochrome P450 2C19 (read-out: AC50), the AC50 is 11.2 µM (inconclusive).
As for `O=C(Cn1cnc2c(oc3ccccc32)c1=O)c1ccccc1`, the EC50 in the series with H4 is > 120 µM (not active); in series [3], 29.6 µM (active); in series [4], 104 µM (active).
With `Cc1nc(Nc2ccccc2)sc1C`, in series [1], the EC50 is recorded as > 195 µM (not active).
With `Cn1sc(NC(=O)c2ccccc2Cl)nc1=O`, the AC50 on Cytochrome P450 2C9 was 17.8 µM (inconclusive).
As for `COc1ccc(C(=O)NC(C)c2cc(OC)c(OC)cc2Br)cc1` (stereo unspecified), the AC50 on Cytochrome P450 2C19 (read-out: AC50) is 39.8 µM (inconclusive).
As to `CC1(C)C(=O)C(c2ccccc2)=C2CN3C(=O)N(CCc4ccccc4)C(=O)C3(Cc3ccccc3)C=C21` (stereo unspecified), the AC50 was 6.31 µM (inconclusive) at Cytochrome P450 1A2 and 12.6 µM (inconclusive) at Cytochrome P450 2C9.
As for `CCOC(=O)N1CCN(C(=O)CNS(=O)(=O)c2cccs2)CC1`, the values for the AC50 at Cytochrome P450 2C9 and on Cytochrome P450 3A4 were 3.98 µM (inconclusive) and 14.1 µM (inconclusive), respectively.
Turning to `O=C(c1ccncc1)N1CCC2(CC1)CCN(c1ccccc1)CC2`, the AC50 at Cytochrome P450 2C19 (read-out: AC50) is 39.8 µM (inconclusive).
For `O=C(Nc1cccc(Cl)c1)N(Cc1nc(O)c2ccccc2n1)C1CCCC1`, the EC50 in series [2] is > 260 µM (inactive).
With `O=C(CCNC(=O)c1ccc(Cl)cc1)Nc1ncccc1O`, in [1], the concentration giving a half-maximal response (EC50) is on record as > 195 µM (not active).
Consider `CC1(C)O[C@@H]2C[C@H]3[C@H]4C[C@H](F)C5=CC(=O)C=C[C@@]5(C)[C@@H]4[C@H](O)C[C@]3(C)[C@]2(C(=O)CO)O1`, for which the AC50 entry at Cytochrome P450 2C19 is “inconclusive”; on Cytochrome P450 3A4, 12.6 µM (inconclusive).
As for `CCCC(C(=O)NCc1ccco1)N(C(=O)CNS(=O)(=O)c1ccc(Cl)cc1)C1CCCC1` (stereo unspecified), the EC50 in [2] is > 260 µM (inactive).
For the compound `CC1CCN(C(=O)Cn2nnc(-c3cccs3)n2)CC1`, the EC50 was 23.4 µM (active) in the series with H4, 59.7 µM (active) in series [3] and 4.67 µM (active) in series [4].
For `CC(C)c1cccc2nc3c(c([Si](C)(C)C(C)(C)C)c12)Cn1c-3cccc1=O`, the AC50 on Cytochrome P450 1A2 is 25.1 µM (inconclusive); on Cytochrome P450 2C9 it was 39.8 µM (inconclusive).
Regarding `CN1CCN(S(=O)(=O)c2cccc(C(=O)NCCC3=CCCCC3)c2)CC1`, the EC50 in [1] was > 195 µM (not active).
As for `COc1ccccc1CNc1cc(-c2cccc(C#N)c2)ncn1`, the AC50 at Cytochrome P450 2C19 (read-out: AC50) was 6.31 µM (inconclusive); on Cytochrome P450 3A4, 25.1 µM (inconclusive).
Consider `CCCN(CCC)CCCNC(=O)C[S+]([O-])Cc1nc(-c2ccc(OC)c(OC)c2)oc1C` (stereo unspecified), for which, in series [2], the EC50 is > 260 µM (inactive). Besides, the AC50 was 3.16 µM (inconclusive) on Cytochrome P450 1A2, 39.8 µM (inconclusive) on Cytochrome P450 2C9 and 7.94 µM (inconclusive) on Cytochrome P450 3A4.
For the compound `O=C(c1ccc(Oc2ccc(C(F)(F)F)cn2)cc1)N1CCN(c2ccccc2)CC1`, the AC50 is 25.1 µM (inconclusive) at Cytochrome P450 2C9 and 14.1 µM (inconclusive) on Cytochrome P450 3A4.
In the case of `N#CC1=C(N)N2C(=C(C#N)C13CCCCC3)SC1CCCCC12O` (stereo unspecified), in series [2], the EC50 was > 260 µM (inactive).
As to `Cc1ccc2nsnc2c1S(=O)(=O)N(CCO)Cc1cc2cc3c(cc2nc1O)OCCO3`, the EC50 with H4 was 10.4 µM (active); in [3], 8.99 µM (active); in [4], 14.2 µM (active).
`COc1ccc(-c2nc(C#N)c(N3CCCCC3)o2)cc1`: in [2], the EC50 is > 260 µM (inactive).
Consider `COCCCNC(=O)C1CC(=O)N(Cc2ccc(OC)cc2)C1` (stereo unspecified), for which the AC50 on Cytochrome P450 2C19 (read-out: AC50) is 22.4 µM (inconclusive); at Cytochrome P450 3A4 it was 20 µM (inconclusive).
For the compound `CS(=O)(=O)N1CCCC(C(=O)N2CCc3ccccc3C2)C1` (stereo unspecified), the figures for the AC50 at Cytochrome P450 2C19 (read-out: AC50), at Cytochrome P450 1A2 and at Cytochrome P450 3A4 were 35.5 µM (inconclusive), 25.1 µM (inconclusive) and 17.8 µM (inconclusive), respectively.
As for `O=P(Nc1c(Cl)cccc1Cl)(c1ccccc1)c1nc2c(s1)CCCC2` (stereo unspecified), the concentration at half-maximal activity (AC50) is 20 µM (inconclusive) at Cytochrome P450 2C19 (read-out: AC50) and 17.8 µM (inconclusive) on Cytochrome P450 2C9.
Take `CCOc1ccc(N2C(=O)CN=C2Nc2ccccc2F)cc1`: the AC50 on Cytochrome P450 2C19 (read-out: AC50) was 25.1 µM (inconclusive); at Cytochrome P450 1A2 it was 15.8 µM (inconclusive).
As to `COC(=O)C1CSC(C(=O)OC)N1C(=O)Nc1c(C)cccc1C` (stereo unspecified), the AC50 at Cytochrome P450 2C9 is 25.1 µM (inconclusive).
In the case of `C=C1S/C(=N/c2ccccc2Cl)N(C(=O)c2sc3ccccc3c2Cl)C1(C)C`, the EC50 in series [2] was > 260 µM (inactive).
With `C/C(CC(=O)Nc1cc(C)cc(C)c1)=N\NC(=O)c1ccccn1`, the EC50 was 42.2 µM (active) in the series on H4, > 120 µM (not active) in series [3] and > 120 µM (not active) in series [4].
For `O=C(CSCc1cccc(Cl)c1)N/N=C/c1ccc(OCC(=O)N2CCCCC2)cc1`, the values for the AC50 at Cytochrome P450 1A2 and on Cytochrome P450 2C9 were 20 µM (inconclusive) and 22.4 µM (inconclusive), respectively.
Consider `O=[N+]([O-])c1cccc(/C(=N/N=C/c2ccccc2Br)C23CN4CN(CN(C4)C2)C3)c1`, for which the AC50 at Cytochrome P450 2C19 (read-out: AC50) is 14.1 µM (inconclusive); on Cytochrome P450 1A2 it was 22.4 µM (inconclusive); at Cytochrome P450 2C9, 35.5 µM (inconclusive); at Cytochrome P450 3A4, 31.6 µM (inconclusive).
On to `CC1(C)CC(=O)C=C(Nc2ccc(Br)cc2F)C1`, for which the EC50 in series [1] is given as > 195 µM (not active).
For the compound `CCc1cccc(CC)c1NC(=O)CN(CC(=O)O)CC(=O)O` [ETIFENIN], on Cytochrome P450 2C19, the AC50 result was “inconclusive”.

In general, AC50 refers to the concentration at which the activity in the assay is half-maximal. By EC50 is commonly meant the concentration that produces a half-maximal response.
